This passage reports GI50 and TGI results from PubChem BioAssay (NCI).

Some test systems named below: EKVX NSCLC; HCT-116 colon; SF-539 CNS; HCT-15 colon; MALME-3M melanoma; 786-0 renal; NCI-H522 lung; COLO 205 colon; KM12 colon; OVCAR-5 ovarian.
Common to all, as to assay: NCI tumour cell line growth inhibition, 48 h

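Cultured in 96-well plates, cells were exposed to test compound for 48 hours across five concentrations. GI50 is the concentration that inhibits growth by half. TGI denotes the concentration required for complete inhibition of growth.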 Bounds are passed on as bounds.

For `CN1C(NC(=O)c2ccc(Cl)nc2)=NS(=O)(=O)c2cc(Cl)ccc21`, the GI50 in the assay on EKVX NSCLC, with HCT-116 colon, in the assay on SF-539 CNS, with HCT-15 colon, in the assay on MALME-3M melanoma and in the assay with 786-0 renal was more than 100 µM throughout. For the same compound, the GI50 in the assay with NCI-H522 lung, with COLO 205 colon and in the assay on KM12 colon was more than 100 µM throughout. Besides, the TGI in the assay with EKVX NSCLC, in the assay on HCT-116 colon, in the assay on SF-539 CNS, with HCT-15 colon, with MALME-3M melanoma and with 786-0 renal was more than 100 µM in each case. Besides, the TGI in the assay with NCI-H522 lung, in the assay on COLO 205 colon and in the assay with KM12 colon was more than 100 µM throughout.

Take `COc1ccc(-c2nc(-c3nc4ccc(C)cc4[nH]3)c3ccccn23)cc1`: the GI50 with OVCAR-5 ovarian is 4.69 µM; in the assay with HCT-116 colon, 3.26 µM; in the assay with SF-539 CNS, 3.32 µM; in the assay on HCT-15 colon it was 2.83 µM; with MALME-3M melanoma, 2.83 µM; with 786-0 renal, 3.67 µM. Also, the GI50 was 1.95 µM in the assay with NCI-H522 lung, 3.23 µM in the assay on COLO 205 colon and 2.38 µM with KM12 colon. The TGI is more than 100 µM in the assay with OVCAR-5 ovarian; 9.46 µM with HCT-116 colon; more than 100 µM with SF-539 CNS; more than 100 µM in the assay on HCT-15 colon; 8.62 µM with MALME-3M melanoma; more than 100 µM in the assay with 786-0 renal. The TGI in the assay with NCI-H522 lung was 4.63 µM; in the assay with COLO 205 colon, more than 100 µM; in the assay on KM12 colon it was 9.07 µM.

Regarding `CSc1nc(NC2OC(COC(C)=O)C(OC(C)=O)C(OC(C)=O)C2OC(C)=O)c2c(OC(C)=O)c(C)c(=O)oc2n1` (stereo not given), the TGI with OVCAR-5 ovarian, in the assay on EKVX NSCLC, in the assay on HCT-116 colon, in the assay with SF-539 CNS, in the assay on HCT-15 colon and in the assay on MALME-3M melanoma was more than 100 µM throughout. The TGI in the assay on 786-0 renal, with COLO 205 colon and in the assay with KM12 colon was more than 100 µM each time.

For `CNC=O.[O]=[Ge].[O]=[Ge].[O]=[Ge].[O]=[Ge][OH].[O]=[Ge][OH]`, the TGI in the assay with OVCAR-5 ovarian, in the assay on EKVX NSCLC, in the assay on HCT-116 colon, with SF-539 CNS, with HCT-15 colon and in the assay with MALME-3M melanoma was more than 100 µM each time. The TGI in the assay on 786-0 renal and in the assay with KM12 colon was more than 100 µM each time.

In the case of `CC(C)=[CH][Sb]([Br])([CH]=C(C)C)([CH]=C(C)C)[CH]=C(C)C`, the GI50 with EKVX NSCLC was 4.88 µM; in the assay with HCT-116 colon, 13.9 µM; in the assay on HCT-15 colon it was more than 100 µM; in the assay with MALME-3M melanoma it was 5.28 µM; with 786-0 renal, 34.4 µM; with NCI-H522 lung, 1.5 µM. Besides, the GI50 in the assay with COLO 205 colon is 1.93 µM; in the assay with KM12 colon, 3.63 µM. For the same compound, the TGI with EKVX NSCLC is 88.6 µM; in the assay with HCT-116 colon, 60.4 µM; in the assay with HCT-15 colon it was more than 100 µM; with MALME-3M melanoma it was more than 100 µM; in the assay on 786-0 renal it was more than 100 µM; in the assay on NCI-H522 lung it was 20.2 µM. In addition, the TGI in the assay on COLO 205 colon turned out to be 5.89 µM; with KM12 colon it was 87.9 µM.

As for `CC(=O)SCCC1c2[nH]c3ccccc3c2CCN1O` (stereo not given), the TGI with OVCAR-5 ovarian, in the assay on EKVX NSCLC, with SF-539 CNS, in the assay with HCT-15 colon, in the assay on MALME-3M melanoma and with 786-0 renal was more than 100 µM each time. In addition, the TGI in the assay with NCI-H522 lung, in the assay with COLO 205 colon and with KM12 colon was more than 100 µM each time.

As for `CCc1cccc(C)c1NC(C)=O`, the TGI with OVCAR-5 ovarian, in the assay on EKVX NSCLC, with HCT-116 colon, in the assay with SF-539 CNS, in the assay with HCT-15 colon and in the assay on MALME-3M melanoma was more than 100 µM each time. The TGI in the assay with 786-0 renal and in the assay with KM12 colon was more than 100 µM throughout.

Regarding `CCN(CC)C(=O)C/C(C)=N/NC(=O)c1ccncc1`, the TGI with OVCAR-5 ovarian, in the assay on EKVX NSCLC, in the assay on HCT-116 colon, in the assay on SF-539 CNS, in the assay with MALME-3M melanoma and in the assay on 786-0 renal was more than 100 µM each time. The TGI with NCI-H522 lung, in the assay on COLO 205 colon and in the assay on KM12 colon was more than 100 µM in each case.

In the case of `COC(=O)CSc1n[nH]c(-c2ccc(O)c([N+](=O)[O-])c2)n1`, the TGI with OVCAR-5 ovarian, in the assay with EKVX NSCLC, in the assay on HCT-116 colon, with SF-539 CNS, in the assay on HCT-15 colon and in the assay on MALME-3M melanoma was more than 100 µM each time. In the assay with 786-0 renal, this compound gave a TGI of more than 100 µM.

For the compound `COc1ccc(C(=O)O)c(Cc2cccc3ccccc23)c1`, the TGI in the assay on OVCAR-5 ovarian, in the assay with EKVX NSCLC, in the assay on HCT-116 colon, with HCT-15 colon, with MALME-3M melanoma and with 786-0 renal was more than 100 µM in each case. Further, the TGI in the assay with NCI-H522 lung, in the assay with COLO 205 colon and in the assay on KM12 colon was more than 100 µM in each case.

Consider `CC#CC(=O)Nc1ccccc1CC(c1c[nH]c2ccccc12)c1c[nH]c2ccccc12`, for which the TGI came to 54.7 µM in the assay with EKVX NSCLC; 37.2 µM with SF-539 CNS; 32.8 µM in the assay with HCT-15 colon; 32.3 µM in the assay with MALME-3M melanoma; 43 µM in the assay on 786-0 renal; 29.7 µM in the assay on COLO 205 colon. For the same compound, the TGI in the assay with KM12 colon is 53.6 µM.

Turning to `NCCCNCCSSCCCCS(=O)O`, the TGI in the assay on OVCAR-5 ovarian is more than 100 µM; with EKVX NSCLC it was more than 100 µM; with HCT-116 colon, 70.2 µM; with SF-539 CNS, more than 100 µM; in the assay on HCT-15 colon it was more than 100 µM; in the assay on MALME-3M melanoma it was 49.2 µM. Moreover, the TGI was more than 100 µM in the assay with 786-0 renal, 32.3 µM in the assay with NCI-H522 lung and 35.7 µM in the assay on COLO 205 colon.

In the case of `COC(=O)C1=C(c2ccc3c(c2)OCO3)O[C@H](c2ccc3c(c2)OCO3)[C@H]1COC(C)=O`, the TGI in the assay on OVCAR-5 ovarian, in the assay with EKVX NSCLC, with HCT-116 colon, in the assay with SF-539 CNS, with HCT-15 colon and in the assay on MALME-3M melanoma was more than 100 µM in each case. In addition, the results for the TGI in the assay with 786-0 renal, in the assay on COLO 205 colon and in the assay on KM12 colon were more than 100 µM, 28.9 µM and more than 100 µM, respectively.

Turning to `CCCCCCCCCCCCCCCCOP(=O)(O)Oc1ccc(/C=C\c2ccc(OP(=O)(O)OCCCCCCCCCCCCCCCC)cc2)cc1`, the TGI with OVCAR-5 ovarian, in the assay on EKVX NSCLC, in the assay with HCT-116 colon, with HCT-15 colon, in the assay with MALME-3M melanoma and in the assay on 786-0 renal was more than 100 µM each time. The figures for the TGI in the assay on NCI-H522 lung, with COLO 205 colon and in the assay on KM12 colon were more than 100 µM, 33.6 µM and more than 100 µM, respectively.
